The source of these data is the supplement of paper PMC6965134.

The nature of this data set: TIMS collisional cross section (CCS, N2) of the lipid ion; higher = larger ion cross section. Particulars: ionization mode: positive, one isomer drawn.

The structures appear in SMILES notation. ± gives the standard deviation of the averaged measurements.

With `CC/C=C\C/C=C\C/C=C\C/C=C\C/C=C\CCCCCC(=O)OC[C@@H](COC(=O)CCCCCCC/C=C\C/C=C\CCCCC)OC(=O)CCCCCCC/C=C\C/C=C\CCCCC` [TG 18:2_18:2_22:5] (ion (formula + adduct): [C61H100O6+NH4] 1+), the “TIMS collisional cross section” value (sample type: Liver) was found to be 327.9 Å².

As for `CCCCCC/C=C\CCCCCCCC(=O)OC[C@@H](COC(=O)CCCCCCCCCCCC)OC(=O)CCCCCCCCCCCCCC` [TG 13:0_15:0_16:1] (ion (formula + adduct): [C47H88O6+NH4] 1+), the “TIMS collisional cross section” value runs as follows: (sample type: HeLa) 299.7 Å²; (sample type: Liver) 299.6 Å².

On to `CCCCCC/C=C\CCCCCCCC(=O)OC[C@H](CO)OC(=O)CCCCCCC/C=C\CCCCCC` [DG 16:1_16:1_0:0] (ion (formula + adduct): [C35H64O5+NH4] 1+), for which the “TIMS collisional cross section” value (sample type: HeLa) was 249 Å².

Turning to `CCCCCC/C=C\CCCCCCCC(=O)OC[C@@H](COC(=O)CCCCCCCCCCCCCCC)OC(=O)CCCCCCCCCCCCCCC` [TG 16:0_16:0_16:1] (ion (formula + adduct): [C51H96O6+NH4] 1+), the “TIMS collisional cross section” value (sample type: HeLa) is listed as 311.7 Å².

As to `CC/C=C/C/C=C/C/C=C/C/C=C/C/C=C/C/C=C/CCC(=O)O[C@H](COC(=O)CCCCCCCCCCCCCCC)COP(=O)([O-])OCC[N+](C)(C)C` [PC 16:0_22:6] (ion (formula + adduct): [C46H80NO8P+H] 1+), the “TIMS collisional cross section” value by setting is: (sample type: HeLa) 291.8 Å²; (sample type: plasma) 292 Å².

In the case of `CCCCCC/C=C\CCCCCCCC(=O)O[C@H](COC(=O)CCCCCCCCCCCCCC)COC(=O)CCCCCCCCCCCCCCCC` [TG 15:0_16:1_17:0] (ion (formula + adduct): [C51H96O6+NH4] 1+), the “TIMS collisional cross section” value (sample type: Liver) came to 312.5 Å².

For the compound `CCCCC/C=C\C/C=C\C/C=C\C/C=C\CCCC(=O)O[C@H](COC(=O)CCCCCCCCCCCCCCCC)COP(=O)(O)OCCN` [PE 17:0_20:4@] (ion (formula + adduct): [C42H76NO8P+H] 1+), the “TIMS collisional cross section” value is 280.4 Å² (sample type: HeLa) and 280.35 ± 0.071 Å² (sample type: Liver).

`CCCCCCCC/C=C\CCCCCCCC(=O)OC[C@H](COP(=O)([O-])OCC[N+](C)(C)C)OC(=O)CCCCCCCCC/C=C\CCCCCCCCCC` [PC 18:1_22:1@] (ion (formula + adduct): [C48H92NO8P+H] 1+): for the setting “sample type: HeLa”, the “TIMS collisional cross section” value is listed as 304.8 Å².

`CC/C=C\C/C=C\C/C=C\C/C=C\C/C=C\C/C=C\CCC(=O)OC[C@@H](COC(=O)CCCCCCCCCCCCC)OC(=O)CCCCCCC/C=C\CCCCCC` [TG 14:0_16:1_22:6] (ion (formula + adduct): [C55H92O6+NH4] 1+): under “sample type: HeLa”, the “TIMS collisional cross section” value is given as 315 Å².

`CC/C=C\C/C=C\C/C=C\C/C=C\C/C=C\CCCCCC(=O)O[C@@H](CO)COC(=O)CCCCCCCCCCCCCCC` [DG 16:0_22:5_0:0] (ion (formula + adduct): [C41H70O5+NH4] 1+): the “TIMS collisional cross section” value (sample type: HeLa) stood at 266.6 Å² and the “TIMS collisional cross section” value (sample type: Liver) amounted to 270 Å².

As to `CCCCC/C=C\C/C=C\CCCCCCCCCC(=O)O[C@H](COC(=O)CCCCCCC/C=C\C/C=C\CCCCC)COC(=O)CCCCCCCCCCCCCCCCCCCCC` [TG 18:2_20:2_22:0] (ion (formula + adduct): [C63H114O6+NH4] 1+), the “TIMS collisional cross section” value (sample type: Liver) came out at 341.4 Å².

For the compound `CCCCCCCCCCC/C=C/[C@@H](O)[C@H](COP(=O)([O-])OCC[N+](C)(C)C)NC(=O)CCCCCCCCCCCCCCC` [SM d16:1_16:0@] (ion (formula + adduct): [C37H75N2O6P+H] 1+), the “TIMS collisional cross section” value (sample type: plasma) is on record as 279.1 Å².

Consider `CC/C=C\C/C=C\C/C=C\C/C=C\C/C=C\CCCC(=O)O[C@H](COC(=O)CCCCCCC/C=C\CCCCCC)COP(=O)(O)OCCN` [PE 16:1_20:5@] (ion (formula + adduct): [C41H70NO8P+H] 1+), for which the “TIMS collisional cross section” value runs as follows: (sample type: HeLa) 269.8 Å²; (sample type: Liver) 269.8 Å².

Consider `CCCCC/C=C\C/C=C\C/C=C\C/C=C\CCCC(=O)OC[C@H](COP(=O)(O)OCCN)OC(=O)CCCCCCCCCCCCC` [PE 20:4@_14:0] (ion (formula + adduct): [C39H70NO8P+H] 1+), for which, under “sample type: HeLa”, the “TIMS collisional cross section” value came to 270.2 Å².

Take `CCCCCCCC/C=C\CCCCCCCC(=O)OC[C@H](COC(=O)CCCCCCCCCCCCCCCCCCCCC)OC(=O)CCCCCCCCCCCCCCCCCC` [TG 18:1_19:0_22:0] (ion (formula + adduct): [C62H118O6+NH4] 1+): the “TIMS collisional cross section” value (sample type: Liver) stood at 344.9 Å².

`CCCCCCCC/C=C\CCCCCCCCCC(=O)OC[C@@H](COC(=O)CCCCCCCCCCCCCCCC)OC(=O)CCCCCCC/C=C\CCCCCCCC` [TG 17:0_18:1_20:1] (ion (formula + adduct): [C58H108O6+NH4] 1+): the “TIMS collisional cross section” value by setting is: (sample type: HeLa) 330.7 Å²; (sample type: Liver) 331.2 Å²; (sample type: plasma) 332 Å².

As for `CCCCCC/C=C\CCCCCCCC(=O)OC[C@H](COC(=O)CCCCCCC/C=C\CCCCCCCC)OC(=O)CCCCCCC/C=C\CCCCCCC` [TG 16:1_17:1_18:1] (ion (formula + adduct): [C54H98O6+NH4] 1+), for the setting “sample type: HeLa”, the “TIMS collisional cross section” value came to 316.5 Å².

Regarding `CCCCC/C=C\C/C=C\CCCCCCCCCC(=O)OC[C@@H](COC(=O)CCCCCCCCCCCCC)OC(=O)CCCCCCC/C=C\CCCCCCCC` [TG 14:0_18:1_20:2] (ion (formula + adduct): [C55H100O6+NH4] 1+), the “TIMS collisional cross section” value turned out to be 320 Å² (sample type: HeLa) and 320.5 Å² (sample type: Liver).

In the case of `CC/C=C/C=C/C=C/C=C/CCCCCCCC(=O)OC[C@@H](O)COP(=O)([O-])OCC[N+](C)(C)C` [LPC 18:4] (ion (formula + adduct): [C26H46NO7P+H] 1+), the “TIMS collisional cross section” value (sample type: plasma) was determined as 220.8 Å².

With `CCCCCCCCCCCCCCCC(=O)OC[C@H](COP(=O)([O-])OCC[N+](C)(C)C)OC(=O)CCCCCCCC=O` [Oxidized PC 16:0_9:0@] (ion (formula + adduct): [C33H64NO9P+H] 1+), the “TIMS collisional cross section” value (sample type: HeLa) is 257.85 ± 1.6 Å² and the “TIMS collisional cross section” value (sample type: plasma) is recorded as 257 ± 0.14 Å².

For the compound `CCCCCC/C=C\CCCCCCCC(=O)OC[C@H](COC(=O)CCCCCCC/C=C\CCCCCCC)OC(=O)CCCCCCCCCCCCCCCC` [TG 16:1_17:0_17:1] (ion (formula + adduct): [C53H98O6+NH4] 1+), the “TIMS collisional cross section” value (sample type: HeLa) is on record as 315.7 Å².

`CCCCCC/C=C\CCCCCCCC(=O)O[C@H](COC(=O)CCCCCCCCCCCCC)COP(=O)([O-])OCC[N+](C)(C)C` [PC 14:0_16:1] (ion (formula + adduct): [C38H74NO8P+H] 1+): the “TIMS collisional cross section” value (sample type: HeLa) turned out to be 275.8 Å².

`CCCCCCCC/C=C\CCCCCCCCCC(=O)O[C@@H](CO)COC(=O)CCCCCCC/C=C\CCCCCCCC` [DG 18:1_20:1_0:0] (ion (formula + adduct): [C41H76O5+NH4] 1+): the “TIMS collisional cross section” value (sample type: Liver) worked out at 271.8 Å².

For the compound `CC/C=C\C/C=C\C/C=C\C/C=C\C/C=C\C/C=C\CCC(=O)O[C@H](COC(=O)CCCCCCCCCCCCCCC)COP(=O)(O)OCCN` [PE 16:0_22:6@] (ion (formula + adduct): [C43H74NO8P+H] 1+), the “TIMS collisional cross section” value (sample type: Liver) stood at 280.9 Å².

In the case of `CCCCC/C=C\C/C=C\CCCCCCCC(=O)OC[C@@H](COC(=O)CCCCCCCCCCCCCCC)OC(=O)CCCCCCC/C=C\CCCCCCC` [TG 16:0_17:1_18:2] (ion (formula + adduct): [C54H98O6+NH4] 1+), the “TIMS collisional cross section” value is 316 Å² (sample type: Liver) and 317.8 Å² (sample type: plasma).

As to `CCCCC/C=C\C/C=C\CCCCCCCC(=O)O[C@H](COC(=O)CCCCCCCCCCCCCCCC)COP(=O)([O-])OCC[N+](C)(C)C` [PC 17:0_18:2] (ion (formula + adduct): [C43H82NO8P+H] 1+), the “TIMS collisional cross section” value (sample type: Liver) was 288.1 Å².

Take `CC/C=C\C/C=C\C/C=C\C/C=C\C/C=C\C/C=C\CCC(=O)OC[C@@H](COC(=O)CCCCCCC/C=C\CCCCCC)OC(=O)CC/C=C\C/C=C\C/C=C\C/C=C\C/C=C\C/C=C\CC` [TG 16:1_22:6_22:6] (ion (formula + adduct): [C63H96O6+NH4] 1+): under “sample type: HeLa”, the “TIMS collisional cross section” value worked out at 329.5 Å².

On to `CCCCC/C=C\C/C=C\CCCCCCCC(=O)OC[C@H](COP(=O)(O)OCCN)OC(=O)CCCCCCC/C=C\C/C=C\CCCCC` [PE 18:2_18:2] (ion (formula + adduct): [C41H74NO8P+H] 1+), for which the “TIMS collisional cross section” value (sample type: Liver) was found to be 273.1 Å².

As for `CCCCCC/C=C\CCCCCCCC(=O)OC[C@@H](O)COP(=O)(O)OCCN` [LPE 16:1_0:0] (ion (formula + adduct): [C21H42NO7P+H] 1+), the “TIMS collisional cross section” value (sample type: HeLa) is listed as 210.1 Å².

In the case of `CCCCC/C=C\C/C=C\CCCCCCCCCC(=O)OC[C@@H](COC(=O)CCCCCCCCCCCCCCCCC)OC(=O)CCCCCCC/C=C\C/C=C\CCCCC` [TG 18:0_18:2_20:2] (ion (formula + adduct): [C59H106O6+NH4] 1+), the “TIMS collisional cross section” value (sample type: Liver) stood at 330.3 Å².

For `CC/C=C\C/C=C\C/C=C\C/C=C\C/C=C\C/C=C\CCC(=O)OC[C@@H](O)COP(=O)([O-])OCC[N+](C)(C)C` [LPC 22:6] (ion (formula + adduct): [C30H50NO7P+H] 1+), the “TIMS collisional cross section” value is recorded as 232.4 Å² (sample type: HeLa), 234.5 Å² (sample type: Liver) and 233.5 ± 1.3 Å² (sample type: plasma).

Regarding `CCCCC/C=C\C/C=C\C/C=C\C/C=C\CCCC(=O)OC[C@@H](COC(=O)CCCCCCCCCCCCCCC)OC(=O)CCCCCCC/C=C\C/C=C\CCCCC` [TG 16:0_18:2_20:4] (ion (formula + adduct): [C57H98O6+NH4] 1+), where the note is “sample type: plasma”, the “TIMS collisional cross section” value came out at 321.2 Å².

Turning to `CCCCCCCCCCCCCCCCCC(=O)OC[C@@H](COC(=O)CCCCCCCCCCCCCCC)OC(=O)CCCCCCCCCCCCCCCCC` [TG 16:0_18:0_18:0] (ion (formula + adduct): [C55H106O6+NH4] 1+), the “TIMS collisional cross section” value runs as follows: (sample type: Liver) 326.7 Å²; (sample type: plasma) 326.7 Å².
